Source: PMC10584170, “Machine learning-based phenotypic imaging to characterise the targetable biology of Plasmodium falciparum male gametocytes for the development of transmission-blocking antimalarials” (PLOS Pathogens, 2023)

What was measured:
[1] = tested on: P. falciparum male gametocytes; assay: P. falciparum Dual Gamete Formation Assay (PfDGFA), male readout (exflagellation); type: cell-based, Plasmodium falciparum NF54; details: for Average inhibition male (%): average of replicates; for % inhibition male (individual replicates) R1: replicate R1; for % inhibition male (individual replicates) R3: replicate R3; for % inhibition male (individual replicates) R4: replicate R4
Description: (§1) P. falciparum NF54 (originally isolated from an imported malaria case in the Netherlands in the 1980s; BEI Resources, cat. No. MRA-1000) strain asexual parasites were maintained between 0.3–5% parasitaemia by regular passage in complete culture medium (RPMI supplemented with 25 mM HEPES, 50 μg ml^−1 hypoxanthine, 4.8 g l^−1 NaHCO3, 2mM L-glutamine, 5% pooled type AB serum, 0.5% Albumax II (Gibco)) at 4% haematocrit in washed whole blood (National Blood and Transfusion Service or Centro de Transfusiones de la Comunidad de Madrid CTCM) under a 1% O2/3% CO2/96% N2 environment. Gametocytes were induced by seeding culture flasks at 2% parasitaemia/4% haematocrit and subjecting them to daily medium changes for 14 days whilst maintaining a temperature of 37°C at all times. On Day 14, the maturity of gametocytes was assessed by quantifying male gametogenesis (exflagellation). A 20 μl sample of gametocyte culture was mixed with equal volume of ookinete medium (complete culture medium supplemented with 0.1 μM xanthurenic acid) at room temperature and transferred to a haemocytometer. After 20 min at room temperature, exflagellation was accurately quantified as described in Delves et al. 2016 [17].
(§2) The Pf DGFA was performed as described in Delves et al. 2016 [17]. […] Plates were then incubated for 24 h at 37°C in a humidified box under a 1% O2/3% CO2/96% N2 gas mix. Gametogenesis was triggered by addition of 10 μl per well of ookinete medium + 0.27 μg ml^-1 Cy3-labelled anti-Pfs25 antibody. Plates were incubated on a metal block at 4°C for 4 min to ensure even cooling, then 28°C for a further 4 min. Exflagellation was recorded by capturing 10 frames over 1 s under brightfield illumination using a x4 objective with a 1.5x zoom (effectively x6) attached to an automated Nikon Ti fluorescence microscope. After recording exflagellation, plates were incubated for a further 24 h in the dark at 28°C to ensure maximal expression of Pfs25 by female gametes. The plates were then returned to the microscope and female gametes imaged at x6 using fluorescence microscopy.
(§3) Exflagellation centres and female gametes were quantified using custom image analysis pipelines developed within ICY Bioimage Analysis (https://icy.bioimageanalysis.org/).

[2] = tested on: P. falciparum female gametocytes; assay: P. falciparum Dual Gamete Formation Assay (PfDGFA), female readout (Pfs25-positive female gametes); type: cell-based, Plasmodium falciparum NF54; details: for Average inhibition female (%): average of replicates; for % inhibition female (individual replicates) R1: replicate R1; for % inhibition female (individual replicates) R3: replicate R3; for % inhibition female (individual replicates) R4: replicate R4
Description: as §1, §2, §3

[3] = 2µM, 24h preincubation with gametocytes prior to induction of gametogenesis
[4] = 2µM, 24h preincubation, number of replicates with >50% inhibition in the male readout
[5] = 2µM, 24h preincubation, number of replicates with >50% inhibition in the female readout
[6] = PfDGFA at 2µM, 24h preincubation with gametocytes
[7] = number of replicates with >50% inhibition in the male readout, 2µM
[8] = number of replicates with >50% inhibition in the female readout, 2µM
[9] = 2µM, 24h preincubation with gametocytes
[10] = PfDGFA at 2µM, 24h preincubation with gametocytes prior to induction of gametogenesis
[11] = PfDGFA at 2µM, 24h preincubation

Structure (SMILES) | Average inhibition male (%) [1, 3] [%] | % inhibition male (individual replicates) R1 [1, 3] [%] | % inhibition male (individual replicates) R3 [1, 3] [%] | % inhibition male (individual replicates) R4 [1, 3] [%] | Average inhibition female (%) [2, 3] [%] | % inhibition female (individual replicates) R1 [2, 3] [%] | % inhibition female (individual replicates) R3 [2, 3] [%] | % inhibition female (individual replicates) R4 [2, 3] [%] | HitlevelM [1, 4] | HitlevelF [2, 5] | further results
CC(C)c1cc2c(ccc3nc(N)nc(N)c32)[nH]1 [TCMDC-137847] | 0.8 | 37.4 | -19.2 | -31.8 | 11.1 | 19.6 | 6.0 | 11.3 |  |  | HitlevelM ([1]; 2µM, 24h preincubation, hits selected on >50% inhibition in the male readout across replicates): 0; Activity ([1]; PfDGFA at 2µM, 24h preincubation, hit = >50% inhibition in male or female readout in at least 3 replicates, 0 = no class assigned): 0; HitlevelF ([2]; 2µM, 24h preincubation, hits selected on >50% inhibition in the female readout across replicates): 0
C/C=C/COc1ccc2ccccc2c1CNCCCCCCCCNCc1c(OC/C=C/C)ccc2ccccc12.CS(=O)(=O)O.O [TCMDC-137844] | 25.4 | 38.1 | 0.24 | 61.8 | 23.4 | 25.6 | 6.4 | 40.3 | 1 | 0 | 
Cl.c1ccc2c(C3CCN(CCCCOc4ccc5c(c4)CCN(CC4CC4)CC5)CC3)c[nH]c2c1 [TCMDC-136244] | 8.5 | 7.6 | -1.4 | 14.2 | 24.9 | 21.4 | 5.1 | 24.5 | 0 | 0 | 
CC(C)CC(=O)N(Cc1ccc(-c2ccc(CNC3Cc4ccccc4C3)cc2)cc1)C1CCNCC1.O=C(O)C(F)(F)F [TCMDC-141449] | 48.3 | 49.9 | 28.4 | 64.9 | 21.5 | 24.4 | 9.8 | 34.2 | 2 | 0 | 
CN1CCC(N2CCC(Oc3cccc(C(=O)NCCCC4CCCC4)c3)CC2)CC1 [TCMDC-124677] | 46.8 | 55.2 | 20.7 | 57.6 | 28.5 | 33.3 | 20.8 | 15.0 | 3 | 0 | 
CN1CCC(NCc2cccc(-c3nn(C)c4nc(NC5CCCC5)ncc34)c2)CC1 [TCMDC-134840] |  |  |  |  |  |  |  |  |  |  | Average inhibition male (%) [1, 6]: 82.7%; % inhibition male (individual replicates) R1 [1, 6]: 90.3%; % inhibition male (individual replicates) R3 [1, 6]: 59.9%; % inhibition male (individual replicates) R4 [1, 6]: 92.2%; HitlevelM [1, 7]: 4; Average inhibition female (%) [2, 6]: 22.7%; % inhibition female (individual replicates) R1 [2, 6]: 22.9%; % inhibition female (individual replicates) R3 [2, 6]: 25.6%; % inhibition female (individual replicates) R4 [2, 6]: 7.8%; HitlevelF [2, 8]: 0
NC1CCN(Cc2ccc(-c3ccc(-c4nc5ccccc5[nH]4)cc3)cc2)C1.O=C(O)C(F)(F)F (stereo not drawn) [TCMDC-133868] | 53.2 | 65.7 | 18.3 | 71.6 | 15.3 | 0.6 | -10.8 | 34.5 | 3 | 0 | 
Cl.N=C(N)NN=Cc1c2ccc(Cl)cc2c(Cl)c2ccc(Cl)cc12 [TCMDC-137884] |  |  |  |  |  |  |  |  |  |  | Average inhibition male (%) [1, 9]: 92.6%; % inhibition male (individual replicates) R1 [1, 9]: 97.0%; % inhibition male (individual replicates) R3 [1, 9]: 80.2%; % inhibition male (individual replicates) R4 [1, 9]: 97.6%; Average inhibition female (%) [2, 9]: 57.1%; % inhibition female (individual replicates) R1 [2, 9]: 33.5%; % inhibition female (individual replicates) R3 [2, 9]: 56.7%; % inhibition female (individual replicates) R4 [2, 9]: 75.9%
CCOc1ccccc1CCNC(C)Cc1ccc(C(=O)Nc2ccc(CC(C)NCCc3cccc(Cl)c3)cc2)cc1 (stereo not drawn) [TCMDC-139805] | 59.5 | 59.5 | 21.2 | 86.9 | 24.4 | 22.1 | 9.3 | 29.9 | 3 | 0 | 
Br.c1cc(C2=NC3CCCCC3N2)ccc1OCCCCCOc1ccc(C2=NC3CCCCC3N2)cc1 (stereo not drawn) [TCMDC-137802] |  |  |  |  |  |  |  |  |  |  | % inhibition male (individual replicates) R1 [1, 10]: 3.7%; % inhibition male (individual replicates) R3 [1, 10]: 3.4%; % inhibition male (individual replicates) R4 [1, 10]: -3.8%; Average inhibition male (%) [1, 11]: -1.7%; % inhibition female (individual replicates) R1 [2, 10]: 13.0%; % inhibition female (individual replicates) R3 [2, 10]: -14.3%; % inhibition female (individual replicates) R4 [2, 10]: -0.44%; Average inhibition female (%) [2, 11]: 3.6%
Cc1cc(CNCCCCCCNCc2ccc(-c3ccccc3)cc2)ccc1O [TCMDC-140412] |  |  |  |  |  |  |  |  |  |  | % inhibition male (individual replicates) R1 [1, 10]: 6.5%; % inhibition male (individual replicates) R4 [1, 10]: 7.3%; Average inhibition male (%) [1, 11]: 9.5%; % inhibition female (individual replicates) R1 [2, 10]: 8.1%; % inhibition female (individual replicates) R3 [2, 10]: -7.2%; % inhibition female (individual replicates) R4 [2, 10]: 4.6%; Average inhibition female (%) [2, 11]: 1.3%
Cc1cccc2nc(-c3ccc(-c4ccc(CN5CCC(CCN6CCCCC6)CC5)cc4)cc3)[nH]c12.O=C(O)C(F)(F)F [TCMDC-133929] |  |  |  |  |  |  |  |  |  |  | Average inhibition male (%) [1, 6]: 89.3%; % inhibition male (individual replicates) R1 [1, 6]: 91.7%; % inhibition male (individual replicates) R3 [1, 6]: 68.3%; % inhibition male (individual replicates) R4 [1, 6]: 101.6%; HitlevelM [1, 7]: 4; Average inhibition female (%) [2, 6]: 48.2%; % inhibition female (individual replicates) R1 [2, 6]: 36.0%; % inhibition female (individual replicates) R3 [2, 6]: 37.3%; % inhibition female (individual replicates) R4 [2, 6]: 59.9%; HitlevelF [2, 8]: 2
COc1cc(C(=O)NC2CCc3ccccc32)cc(Cl)c1OC (stereo not drawn) [TCMDC-124601] |  |  |  |  |  |  |  |  |  |  | % inhibition male (individual replicates) R1 [1, 10]: 0.65%; % inhibition male (individual replicates) R4 [1, 10]: 7.9%; Average inhibition male (%) [1, 11]: 1.1%; % inhibition female (individual replicates) R1 [2, 10]: 1.9%; % inhibition female (individual replicates) R3 [2, 10]: -2.4%; % inhibition female (individual replicates) R4 [2, 10]: 1.9%; Average inhibition female (%) [2, 11]: -0.8%
O=C(O)C(F)(F)F.O=S(=O)(NCCN1CCCC1)c1ccc(-c2cccc(CNC3Cc4ccccc4C3)c2)s1 [TCMDC-132217] | 13.9 | 10.5 | 7.6 | 38.2 | 35.5 | 25.9 | 15.7 | 46.4 | 0 | 1 | 
CC(C)CNCc1ccc(-c2cccc(CN(CCN(C)C)C(=O)CCC3CCCC3)c2)cc1.O=C(O)C(F)(F)F [TCMDC-140553] |  |  |  |  |  |  |  |  |  |  | Average inhibition male (%) [1, 6]: 71.6%; % inhibition male (individual replicates) R1 [1, 6]: 58.5%; % inhibition male (individual replicates) R3 [1, 6]: 51.6%; % inhibition male (individual replicates) R4 [1, 6]: 94.9%; HitlevelM [1, 7]: 4; Average inhibition female (%) [2, 6]: 30.3%; % inhibition female (individual replicates) R1 [2, 6]: 23.2%; % inhibition female (individual replicates) R3 [2, 6]: 20.6%; % inhibition female (individual replicates) R4 [2, 6]: 42.3%; HitlevelF [2, 8]: 0
